Values joined by “and” are separate entries in the source; they are usually repeats but may differ in a detail not shown here. Identical values can stand only once. “Also recorded” adds a separate entry of the source. Like-named read-outs stand apart in the source and are kept apart here.
How the values were obtained:
[1] = Equilibrium distribution coefficients in organic solvent/pH 7.4 systems, shake-flask method; format: physicochemical; conditions: for logD / logD at 24 h: read-out: log DappOctOH/pH7.4 (logD) (converted); for DappHex/pH7.4 ·10^2: value given as D×10^2
Experimental: The equilibrium distribution coefficients of HML were determined in the OctOH/pH 7.4 and Hex/pH 7.4 systems by the shake-flask method over a wide temperature range of 293.15–313.15 K. The distribution coefficient in the IPM/pH 7.4 system was obtained at 310.15 K. Before the experiment, the aqueous and organic phases were mutually pre-saturated by vigorous shaking for 24 h, equilibrated, and then carefully separated. The stock HML solutions were prepared in OctOH for the OctOH/pH 7.4 system and in pH 7.4 for both the Hex/pH 7.4 and IPM/pH 7.4 systems. The volumes of the organic and aqueous phases were selected according to the HML solubility in each solvent. The glass vials containing the two-phase system were equilibrated at constant temperature for 24 h. After this, the vials were allowed to stand for not less than 4 h, and the phases were carefully separated. The concentration of HML in each phase was measured using a UV-VIS spectrophotometer (Cary-50 Varian, Palo Alto, CA, USA; Software Version 3.00 (339)). Each experiment was carried out in three or more replicates. The standard deviation ranged from 2% to 4% of the mean. The distribution coefficients were calculated by Equation (1):(1) DappOrg/pH7.4=C2Org/pH7.4⋅V^pH7.4/Org/C2pH7.4/Org⋅V^Org/pH7.4 where DappOrg/pH7.4 is the distribution coefficient calculated using the compound concentrations in molar units, C2Org/pH7.4 and C2pH7.4/Org are the molar concentrations of the drug in the mutually saturated organic and aqueous phases, respectively, V^pH7.4/Org and V^Org/pH7.4 are the volumes of the mutually saturated buffer and organic phases, respectively. The ΔlogD parameters that characterize the drug’s hydrogen-bonding potential and reflect the impact of specific interactions on partition processes were calculated as follows:(2) ΔlogD^Oct/Hex=logDappOct/pH7.4−logDappHex/pH7.4 (3) ΔlogD^IPM/Hex=logDappIPM/pH7.4−logDappHex/pH7.4

[2] = Transfer thermodynamics from van't Hoff plots of distribution coefficients; format: physicochemical; conditions: 298.15 K
Excerpt: The calculation of the thermodynamic parameters for the solubility and distribution processes was based on component concentrations expressed in terms of mole fractions. The standard calculation procedure and the respective equations are presented in the Supplementary Materials (Section S4).

[3] = Permeability in Franz diffusion cell, PermeaPad barrier; format: in vitro ADME
Experimental: (§1) Permeability coefficients were measured in a vertical type Franz diffusion cell (PermeGear, Inc., Hellertown, PA, USA) maintained at 37 °C, with an effective diffusion area of 0.785 cm^2. The volumes of the donor (lower) and the acceptor (upper) compartments were 7 mL and 2 mL, respectively. Three artificial membranes were used in the study: Regenerated cellulose (RC): Standard Grade RC Dialysis Membrane with a molecular weight cut-off (MWCO) of 12–14 kDa and a flat width of 45 mm; PermeaPad barrier (PP): A commercially available barrier (PHABIOC, Fritz-Souchon-Str. 27, 32339 Espelkamp, Germany; www.innome.de), originally proposed by di Cagno et al.; Polydimethylsiloxane-polycarbonate membrane (PDS): A “Carbosil” membrane composed of 55% polydimethylsiloxane and 45% polycarbonate (PENTAMED, Moscow, Russia; https://medpolymer.ru/).
(§2) A solution of HML in pH 7.4 (7 mL) was placed into the donor chamber of a Franz cell. The acceptor compartment was filled with pure buffer pH 7.4 (1 mL). Over a period of 5 h, 0.5 mL samples were withdrawn from the acceptor compartment at 30 min intervals and replaced with an equal volume of fresh pH 7.4 buffer. The sample concentrations were determined by UV-Vis spectroscopy (Cary-50, Varian, Palo Alto, CA, USA; Software Version 3.00 (339)) or by HPLC (for experiments involving the polydimethylsiloxane-polycarbonate membrane). The cumulative amount of drug permeated through the membrane was plotted as a function of time. The flux was determined from the slope of the linear portion of each curve. The permeability coefficient was calculated using the following equation:(4) Papp=J/C0 where J is the flux, and C0 is the concentration of HML in the donor solution. A reverse dialysis setup was employed, where the lower chamber served as the donor compartment and was filled with the drug solution. Sink conditions were maintained in all experiments, meaning the drug concentration in the acceptor compartment never exceeded 10% of its concentration in the donor compartment at any time according the recommendations proposed in [18].

[4] = Permeability in Franz diffusion cell, regenerated cellulose membrane; format: in vitro ADME; conditions: RC membrane, pH 7.4, 310.15 K
Experimental: as §1, §2

For COc1ccc2c3c([nH]c2c1)C(C)=NCC3 [HML, Harmaline], the logD ([1]; 1-octanol (OctOH)/buffer pH 7.4, pH 7.4, OctOH/pH 7.4, 310.15 K) was 1.29, the logD ([1]; 1-octanol (OctOH)/buffer pH 7.4, pH 7.4, OctOH/pH 7.4, 313.15 K) was 1.34 and the “decrease of distribution coefficient from OctOH/pH 7.4 to IPM/pH 7.4 system” value ([1]; 310.15 K) was 78 fold. For the same compound, the “DappHex/pH7.4 ·10^2” value ([1]; Hex/pH 7.4, 293.15 K) was 1.178 ± 0.024, the “DappHex/pH7.4 ·10^2” value ([1]; Hex/pH 7.4, 303.15 K) was 1.470 ± 0.037 and the “DappHex/pH7.4 ·10^2” value ([1]; Hex/pH 7.4, 308.15 K) was 1.718 ± 0.035. For the same compound, the DappHex/pH7.4 ([1]; Hex/pH 7.4, 310.15 K, unscaled value in text) was 0.022, the “DappHex/pH7.4 ·10^2” value ([1]; Hex/pH 7.4, 310.15 K) was 2.197 ± 0.044 and the “DappHex/pH7.4 ·10^2” value ([1]; Hex/pH 7.4, 313.15 K) was 2.483 ± 0.050. The DappIPM/pH7.4 ([1]; IPM/pH 7.4, 310.15 K) was 0.25 and 0.250 ± 0.010, the logD at 24 h ([1]; OctOH (octanol)/buffer pH 7.4, pH 7.4, OctOH/pH 7.4, 293.15 K) was 0.973 and the logD at 24 h ([1]; OctOH (octanol)/buffer pH 7.4, pH 7.4, OctOH/pH 7.4, 298.15 K) was 1.02. It also gave a logD at 24 h ([1]; OctOH (octanol)/buffer pH 7.4, pH 7.4, OctOH/pH 7.4, 303.15 K) of 1.07, a logD at 24 h ([1]; OctOH (octanol)/buffer pH 7.4, pH 7.4, OctOH/pH 7.4, 308.15 K) of 1.17 and a DappOctOH/pH7.4 ([1]; OctOH/pH 7.4, 293.15 K) of 9.399 ± 0.101. For the same compound, the DappOctOH/pH7.4 ([1]; OctOH/pH 7.4, 298.15 K) was 10.376 ± 0.208, the DappOctOH/pH7.4 ([1]; OctOH/pH 7.4, 303.15 K) was 11.653 ± 0.233 and the DappOctOH/pH7.4 ([1]; OctOH/pH 7.4, 308.15 K) was 14.632 ± 0.293. For the same compound, the DappOctOH/pH7.4 ([1]; OctOH/pH 7.4, 310.15 K) was 19.492 and 19.49 and 19.492 ± 0.389, the DappOctOH/pH7.4 ([1]; OctOH/pH 7.4, 313.15 K) was 22.138 ± 0.443 and the TΔStr0 ([2]; Hex→OctOH) was 21.4±1.9 kJꞏmol-1. The “distribution coefficient Dx (mole fraction scale)” value ([2]; Hex→OctOH) was 993.14, the “enthalpy contribution to transfer (ΔHtr0 share)” value ([2]; Hex→OctOH) was 16.7% and the “entropy contribution to transfer (TΔStr0 share)” value ([2]; Hex→OctOH) was 83.3%. The ΔGtr0 ([2]; Hex→OctOH) was -17.1±0.3 kJꞏmol-1 and −17.1 kJꞏmol-1, the ΔHtr0 ([2]; Hex→OctOH) was 4.3±0.3 kJꞏmol-1 and the TΔStr0 ([2]; pH 7.4→Hex) was 23.4±1.0 kJꞏmol-1. The “enthalpy contribution to transfer (ΔHtr0 share)” value ([2]; pH 7.4→Hex) was 55.3%, the “entropy contribution to transfer (TΔStr0 share)” value ([2]; pH 7.4→Hex) was 44.7% and the ΔHtr0 ([2]; pH 7.4→Hex) was 28.9±0.7 kJꞏmol-1. For the same compound, the TΔStr0 ([2]; pH 7.4→OctOH) was 44.4±1.3 kJꞏmol-1, the “distribution coefficient Dx (mole fraction scale)” value ([2]; pH 7.4→OctOH) was 103.10 and the “enthalpy contribution to transfer (ΔHtr0 share)” value ([2]; pH 7.4→OctOH) was 42.6%. The “entropy contribution to transfer (TΔStr0 share)” value ([2]; pH 7.4→OctOH) was 57.4%, the ΔGtr0 ([2]; pH 7.4→OctOH) was -11.5±0.2 kJꞏmol-1 and −11.5 kJꞏmol-1 and the ΔHtr0 ([2]; pH 7.4→OctOH) was 32.9±0.3 kJꞏmol-1. The logPapp ([3]; PP barrier, pH 7.4, 310.15 K) was −4.43, the “steady state flux J” value ([3]; PP barrier, pH 7.4, 310.15 K, C0 2.23 × 10^−3 M) was 8.28 × 10^−5 µmol∙cm^−2∙s^−1 and the Papp at 5 h ([3]; PP barrier, pH 7.4, 310.15 K, read-out: permeability coefficient Papp) was 37.1 ×10⁻⁶ cm/s. For the same compound, the “permeability classification (Di Cagno et al.)” value ([3]; PP barrier, high permeability if Papp > 2.04∙10^−5 cm∙s^−1) was “highly permeable; also recorded: high permeated substance”, the “permeability coefficient for PP, fold lower than for RC” value ([3]; pH 7.4, 310.15 K) was 1.3 fold and the logPapp [4] was −4.31. The “steady state flux J” value ([4]; C0 2.11 × 10^−3 M) was 1.04 × 10^−4 µmol∙cm^−2∙s^−1 and the Papp at 5 h ([4]; read-out: permeability coefficient Papp) was 49.3 ×10⁻⁶ cm/s.
